These results are taken from patent US7087227B2, “Cartilage composites and methods of use” (Barnes-Jewish Hospital, priority 1997, dated 2006).

What all share (format): cell-based, human
Assay [1] relates to matrix metalloproteinases (MMPs). Description: Zymogram and Western analysis of chondrocyte-derived metalloproteinases in spent media. Particulars: substrate gels. How it is done: FIG. 10, in two parts, FIGS. 10A and 10B, represent SDS-substrate gel (zymogram) analysis of cytokine-mediated production of matrix metalloproteinases (MMPs) in fetal articular chondrocytes (neocartilage disks). Negative staining indicates the molecular weight (MW) in kDa of the active proteases. • Spent media were collected 72 h post stimulation with the indicated cytokine (5 ng/ml) and concentrated 16-fold by dialysis/lyophilization. • Unreduced samples were separated on 10% SDS substrate gels containing either gelatin (FIG. 10A) or casein (FIG. 10B) 0.1%. • MMPs were renatured following SDS removal by extensive washing in 2.5% Triton X-100 and lytic bands visualized via negative staining with Coomassie blue, following incubation in a calcium and zinc containing buffer for 4 hr at 37° C. • Latent enzyme activity is shown in lanes 1–4, while the corresponding active enzymes were prepared by preincubation with 1 mM 4-aminophenyl mercuric acetate (APMA lanes 5–8).
Conditioned media were thawed and identification of chondrocyte-derived metalloproteinases assessed by zymogen substrate gel electrophoresis, as well as Western analysis following SDS-PAGE. Further studies examined the effect of activating agents on synthesis of S-GAG and collagen via radiolabeled incorporation.

In assay [2] the test system is neocartilage. Description: Cytokine-induced resorption of neocartilage (matrix content, gross and histological appearance). How it is done: It is seen that chronic IL-1 stimulation alters cartilage staining for proteoglycan and collagen. • Day 60 neocartilages were treated with 1 ng/ml rhIL-1β for 30 days. Fresh media and cytokine were added every 48 hours. • Neocartilages were harvested (day 90) and stained with safranin-O and pentachrome as before. […] Magnification×100.
Neocartilage cultures were established in 24 or 48 well plastic dishes (Corning) as described above (Example 1) and grown to day 30. The hyaline cartilage matrix was then stimulated to undergo autolytic degradation following 30 day activation with increasing concentrations of a variety of cytokine and/or inflammatory agents, including IL-1, Il-6, IL-17, TNF-α, LPS, and phorbol ester. Culture media were collected every 48 hours and subsequently changed by the addition of fresh media±inflammatory stimuli.
Cultures were terminated and the biochemical composition of the neocartilage matrix that remained was analyzed as described previously. Parallel samples were processed for light and transmission electron microscopy for histological evaluation of extracellular matrix components.

For assay [3], the system named is neocartilage. Described as above. The settings on record: day 28 tissue stimulated for additional 36 days.
Assay [4] deals with Fetal chondrocytes. Description: Effect of heparin on neocartilage formation. The settings on record: day 10–28. The protocol:
Day 10 neocartilage was treated with increasing amounts of heparin for 18 days. Fresh media, containing heparin and ascorbate were added every 72–96 hrs. Media were collected and frozen for future analysis. Cultures were harvested on day 28 and the S-GAG content (FIG. 18A) and OH-proline content (FIG. 18B) of the resultant neocartilage assayed as described hereinbelow.
Fetal chondrocytes were grown as described above and subdivided into three groups on day 10 to investigate the effect of heparin on neocartilage formation. In low doses, heparin is known to increase the activity of certain growth factors, for example the fibroblast growth factor (FGF) family of related proteins, by acting as a co-factor, whereas greater amounts of heparin will strip away certain growth factors from the extracellular matrix and thereby impede tissue repair.
Sterile heparin was added to the media at a final concentration of […] for the duration of the culture period (i.e. from day 10–28). Media were exchanged every 3–4 days and recovered for electrophoretic analysis of secreted proteins. Cell layers were removed and the S-GAG (FIG. 18A), hydroxy proline (FIG. 18B), and DNA content quantitated as before (FIG. 18).

The mark [5] stands for this setting: cytokine 1.0 (ng/ml), chronic treatment.
The mark [6] stands for this setting: cytokine 5.0 (ng/ml), chronic treatment.

As to `CCCCCCCCCCCCCC(=O)O[C@@H]1[C@@H](C)[C@@]2(O)[C@@H](C=C(CO)C[C@]3(O)C(=O)C(C)=C[C@@H]23)[C@@H]2C(C)(C)[C@]12OC(C)=O` [Phorbol ester], the metalloproteinase synthesis induced entry in assay [1] is given as “specifically induced synthesis of gelatinase B”.

As for “IL-1β: cytokine used to stimulate resorption of neocartilage”, the “OH-proline content of tissue” value in assay [2] (cytokine 0.1 ng/ml, chronic treatment) was 572 ± 105 pmol; in assay [2] (setting [5]), 541 ± 16 pmol; in assay [2] (setting [6]), 501 ± 48 pmol; in assay [2] (cytokine + 50 mU plasminogen, cytokine concentration not printed on the line), 460 ± 16 pmol. For the same molecule, the “thickness of the synthesized matrix” value in assay [2] (day 60 neocartilage, 1 ng/ml for 30 days) was “significant reduction in the thickness of the synthesized matrix”. In addition, in assay [2] (day 60 neocartilage, 1 ng/ml for 30 days, versus untreated controls), the “safranin-O and pentachrome staining intensity” value is “Staining intensity is markedly reduced”. Further, the “gross appearance of neocartilage on removal from plastic surface” value in assay [3] is recorded as “retracted considerably upon removal from the plastic surface”.

On to TNF-α, for which the “OH-proline content of tissue” value in assay [2] (setting [5]) stood at 403 pmol; in assay [2] (setting [6]) it was 355 pmol. In addition, in assay [3], the “gross appearance of neocartilage on removal from plastic surface” value is listed as “retracted considerably upon removal from the plastic surface”.

For heparin, the “defect in matrix deposition” value in assay [4] (2 μg/ml) was “much less severe”. The “inhibition in OH-proline (matrix deposition)” value in assay [4] (highest concentration of heparin (20 μg)) is reported as 33%.

B1: plasminogen: added to enhance the activation of latent MMPs via the plasminogen activator/plasmin cascade (protein, UniProt P00747 20-810, looked up)
Plasminogen: EPLDDYVNTQGASLFSVTKKQLGAGSIEECAAKCEEDEEFTCRAFQYHSKEQQCVIMAENRKSSIIIRMRDVVLFEKKVYLSECKTGNGKNYRGTMSKTKNGITCQKWSSTSPHRPRFSPATHPSEGLEENYCRNPDNDPQGPWCYTTDPEKRYDYCDILECEEECMHCSGENYDGKISKTMSGLECQAWDSQSPHAHGYIPSKFPNKNLKKNYCRNPDRELRPWCFTTDPNKRWELCDIPRCTTPPPSSGPTYQCLKGTGENYRGNVAVTVSGHTCQHWSAQTPHTHNRTPENFPCKNLDENYCRNPDGKRAPWCHTTNSQVRWEYCKIPSCDSSPVSTEQLAPTAPPELTPVVQDCYHGDGQSYRGTSSTTTTGKKCQSWSSMTPHRHQKTPENYPNAGLTMNYCRNPDADKGPWCFTTDPSVRWEYCNLKKCSGTEASVVAPPPVVLLPDVETPSEEDCMFGNGKGYRGKRATTVTGTPCQDWAAQEPHRHSIFTPETNPRAGLEKNYCRNPDGDVGGPWCYTTNPRKLYDYCDVPQCAAPSFDCGKPQVEPKKCPGRVVGGCVAHPHSWPWQVSLRTRFGMHFCGGTLISPEWVLTAAHCLEKSPRPSSYKVILGAHQEVNLEPHVQEIEVSRLFLEPTRKDIALLKLSSPAVITDKVIPACLPSPNYVVADRTECFITGWGETQGTFGAGLLKEAQLPVIENKVCNRYEFLNGRVQSTELCAGHLAGGTDSCQGDSGGPLVCFEKDKYILQGVTSWGLGCARPNKPGVYVRVSRFVTWIEGVMRNN
Turning to B1, in assay [2] (50 mU plasminogen alone, no cytokine, chronic treatment), the “OH-proline content of tissue” value came out at 1648 ± 72 pmol.
